According to patent US4317768A, “Dihydropyridine derivatives as stabilizers for vinyl chloride polymers” (priority 1977, dated 1982):
“Also recorded” adds a separate entry of the source.

What was measured:
[1] = Colour of the resin after each passage in a blower-extruder; conditions: blower-extruder
Protocol: (2) Examination of the colour of the resin after each passage (3 in all) in a blower-extruder, the mould being a 250 ml cylindrical flask.
Four resins where tested, the first containing 0.2% of 2-phenyl-indole and the others 0.2%, 0.03% and 0.015% of compound 1 respectively.

[2] = Stabilization of plastified vinyl resins (pressed plates); conditions: plastified resin
Protocol: This study was carried out by pressing plates from sheets which had been mixed for 5 minutes at 180° C., the pressing also lasting 5 minutes but at 170° C.
The same parameters as hereabove were studied, namely the duration of the stability of the colour, the duration of the thermostability and the colour of the pressed plate.

[3] = Comparison with stabilizer G1, rigid co-polymer, 0.5 part, 185° C.
Excerpt: (b) Comparison with stabilizer G1
Stabilizer G1 is a mixture of 1,4-butanediol-β-aminocrotonate and of β-aminocrotonate of alcohols containing from 16 to 18 carbon atoms.

[4] = Comparison with stabilizer G1, rigid co-polymer (12.5 to 13.5% of acetate), 0.5 part, 185° C.
Excerpt: Another comparison was made with the following rigid co-polymer: […]

[5] = Thermostability, rigid co-polymer (e), ventilated oven 210° C.; conditions: 0.3 part
Protocol: (§1) The study of the static thermostability of vinyl co-polymers was carried out according to the GARDNER method described above and, also in a more detailed manner in British Patent No. 1,489,685.
(e) Rigid co-polymer vinyl chloride-vinylidene chloride
(§2) The following compound was prepared:
The sheets were heated in a ventilated oven at 210° C. and the following results were obtained: […]

[6] = Antioxidant power on a polyvinyl chloride resin, Metrastat oven, 210° C.
Protocol: By direct comparison, on a polyvinyl chloride resin, of the antioxidant power of Compound 1 of the invention and that of an antioxidant known as one of the most valuable and frequently used in polyvinyl chloride, namely 2,6-diterbutyl-4-methyl-phenol.
The antioxidant power of Compound 1 was compared to that of 2,6-diterbutyl-4-methyl-phenol (Compound 2) by using the following resin:
The same trials were carried out in a Metrastat oven at 210° C.

[7] = Comparison with 2-phenyl-indole, vinyl chloride-vinyl acetate co-polymer, 185° C.; conditions: 0.3 part
Protocol: (c) Comparison with 2-phenyl-indole
A comparative test was made using the following compound:
(§3) The sheets were heated in a ventilated oven at 185° C. and the following results were obtained: […]

[8] = Comparison with 1,4-butanediol-β-aminocrotonate and methyl-β-aminocrotonate, rigid co-polymer, 185° C.; conditions: 0.5 part
Protocol: (a) Comparison with 1,4-butanediol-β-aminocrotonate and with methyl-β-aminocrotonate.
The following rigid co-polymer was prepared:
as §3

[9] = Comparison with stabilizer G1, 0.3 part, 185° C.
[10] = Thermostability, rigid co-polymer (d), ventilated oven 210° C.; conditions: 0.3 part
Protocol: as §1
(d) Rigid co-polymer vinyl chloride-vinylidene chloride
as §2
The sheets were heated in a ventilated oven at 210° C.

C=CCOC(=O)C1=C(C)NC(C)=C(C(=O)OCC=C)C1 [Compound 1, 2,6-Dimethyl-3,5-dicarboallyloxy-1,4-dihydropyridine]
stability of colour compared to 2-phenyl-indole, in words [1]: markedly superior; also recorded: at all times superior to 2-phenyl-indole used at a concentration of 0.2%
stability of colour compared to 2-phenyl-indole, in words ([1]; listed as compound 1): excellent behaviour
influence on stability / basic colour of the plate, in words [2]: favourable influence on the stability of the plate; also recorded: favourable influence on the basic colour
coloration, GARDNER scale ([3]; 0 min): 1
coloration, GARDNER scale ([3]; 2 min): 1
coloration, GARDNER scale ([3]; 4 min): 2
coloration, GARDNER scale ([3]; 6 min): 6
coloration, GARDNER scale ([3]; 8 min): 10
coloration, GARDNER scale ([3]; 10 min): 13
coloration, GARDNER scale ([3]; 12 min): 17
coloration, GARDNER scale ([4]; 0 min): 1
coloration, GARDNER scale ([4]; 2 min): 1
coloration, GARDNER scale ([4]; 4 min): 2
coloration, GARDNER scale ([4]; 6 min): 3
coloration, GARDNER scale ([4]; 10 min): 12
coloration, GARDNER scale ([4]; 12 min): 18
coloration, GARDNER scale ([4]; column without printed time, between 6 and 10 min): 7
coloration, GARDNER scale ([5]; 0 min): 1
coloration, GARDNER scale ([5]; 3 min): 1
coloration, GARDNER scale ([5]; 6 min): 2
coloration, GARDNER scale ([5]; 9 min): 4
coloration, GARDNER scale ([5]; 12 min): 10
time of burning (B) ([6]; 0.05 part): 40 '
coloration, GARDNER scale ([6]; 0.05 part, 0 to 10 min): 1
coloration, GARDNER scale ([6]; 0.05 part, 10 to 20 min): 1
coloration, GARDNER scale ([6]; 0.05 part, 20 to 25 min): 1
coloration, GARDNER scale ([6]; 0.05 part, 25 to 30 min): 1
coloration, GARDNER scale ([6]; 0.05 part, 35 to 40 min): > 10
time of burning (B) ([6]; 0.1 part): 38 '
coloration, GARDNER scale ([6]; 0.1 part, 0 to 10 min): 1
coloration, GARDNER scale ([6]; 0.1 part, 10 to 20 min): 1
coloration, GARDNER scale ([6]; 0.1 part, 20 to 25 min): 1
coloration, GARDNER scale ([6]; 0.1 part, 25 to 30 min): 1
coloration, GARDNER scale ([6]; 0.1 part, 35 to 40 min): < 10
time of burning (B) ([6]; 0.2 part): 39 '
coloration, GARDNER scale ([6]; 0.2 part, 0 to 10 min): 1
coloration, GARDNER scale ([6]; 0.2 part, 10 to 20 min): 1
coloration, GARDNER scale ([6]; 0.2 part, 20 to 25 min): 1
coloration, GARDNER scale ([6]; 0.2 part, 25 to 30 min): 1
coloration, GARDNER scale ([6]; 0.2 part, 35 to 40 min): < 9
time of burning (B) ([6]; 0.3 part): 39 '
coloration, GARDNER scale ([6]; 0.3 part, 0 to 10 min): 1
coloration, GARDNER scale ([6]; 0.3 part, 10 to 20 min): 1
coloration, GARDNER scale ([6]; 0.3 part, 20 to 25 min): 1
coloration, GARDNER scale ([6]; 0.3 part, 25 to 30 min): 1
coloration, GARDNER scale ([6]; 0.3 part, 35 to 40 min): < 9
time of burning (B) ([6]; 0.4 part): 38 '
coloration, GARDNER scale ([6]; 0.4 part, 0 to 10 min): 1
coloration, GARDNER scale ([6]; 0.4 part, 10 to 20 min): 1
coloration, GARDNER scale ([6]; 0.4 part, 20 to 25 min): 1
coloration, GARDNER scale ([6]; 0.4 part, 25 to 30 min): 1
time of burning (B) ([6]; 0.5 part): 38 '
coloration, GARDNER scale ([6]; 0.5 part, 0 to 10 min): 1
coloration, GARDNER scale ([6]; 0.5 part, 10 to 20 min): 1
coloration, GARDNER scale ([6]; 0.5 part, 20 to 25 min): 1
coloration, GARDNER scale ([6]; 0.5 part, 25 to 30 min): 1
time of burning (B) ([6]; 1.0 part): 37 '
coloration, GARDNER scale ([6]; 1.0 part, 0 to 10 min): 1
coloration, GARDNER scale ([6]; 1.0 part, 10 to 20 min): 1
coloration, GARDNER scale ([6]; 1.0 part, 20 to 25 min): 1
coloration, GARDNER scale ([6]; 1.0 part, 25 to 30 min): 1
antioxidant power, Compound 1 vs Compound Z, in words ([6]; 210° C.): markedly superior to Compound Z

CC1=C(C(=O)OCc2ccccc2)CC(C(=O)OCc2ccccc2)=C(C)N1 [Compound 21, 2,6-Dimethyl-3,5-dicarbobenzyloxy-1,4-dihydropyridine]
coloration, GARDNER scale ([7]; 0 min): 1
coloration, GARDNER scale ([7]; 2 min): 1
coloration, GARDNER scale ([7]; 4 min): 2
coloration, GARDNER scale ([7]; 6 min): 3
coloration, GARDNER scale ([7]; 8 min): 7
coloration, GARDNER scale ([7]; 10 min): 10
coloration, GARDNER scale ([7]; 12 min): 12
coloration, GARDNER scale ([7]; 14 min): 16
coloration, GARDNER scale ([8]; 0 min): 1
coloration, GARDNER scale ([8]; 2 min): 1
coloration, GARDNER scale ([8]; 4 min): 4
coloration, GARDNER scale ([8]; 6 min): 6
coloration, GARDNER scale ([8]; 8 min): 11
coloration, GARDNER scale ([8]; 10 min): 13
coloration, GARDNER scale ([8]; 12 min): 17
coloration, GARDNER scale ([9]; 0 min): 1
coloration, GARDNER scale ([9]; 2 min): 1
coloration, GARDNER scale ([9]; 4 min): 2
coloration, GARDNER scale ([9]; 6 min): 4
coloration, GARDNER scale ([9]; 8 min): 7
coloration, GARDNER scale ([9]; 10 min): 12
coloration, GARDNER scale ([9]; 12 min): 16
coloration, GARDNER scale ([9]; 14 min): 18
coloration, GARDNER scale ([10]; 0 min): 1.5
coloration, GARDNER scale ([10]; 3 min): 2
coloration, GARDNER scale ([10]; 6 min): 2
coloration, GARDNER scale ([10]; 9 min): 3
coloration, GARDNER scale ([10]; 12 min): 7
coloration, GARDNER scale ([10]; 15 min): 15
